# Data as given in paper PMC9790248, “Effects of CYP3A Inhibition, CYP3A Induction, and Gastric Acid Reduction on the Pharmacokinetics of Ripretinib, a Switch Control KIT Tyrosine Kinase Inhibitor” (Clinical Pharmacology in Drug Development, 2022).
# Tests used:
# CYP2C9 = CYP2C9 (Homo sapiens, UniProt P11712); assay: Incubation with recombinant human CYPs, substrate disappearance; type: in vitro ADME; details: ripretinib 0.1 or 1 μM, data on file
# Method: (§1) In vitro studies with recombinant human cytochrome P450 isoforms (CYPs) and human liver microsomes (with chemical inhibitors) indicate that CYP3A4/5 plays a major role in the metabolism of ripretinib (data on file). When incubated with a panel of recombinant human CYPs, ripretinib (0.1 or 1 μM) disappeared in the presence of CYP3A4 (87.8%–100%), CYP2D6 (97.7%–100%), CYP2C8 (71.2% and 18.9%, respectively), and CYP2C19 (15.7% and 6.7%, respectively).
# CYP1A2 = target: T1, CYP1A2 (Homo sapiens, UniProt P05177); assay: as above; type: in vitro ADME; details: ripretinib 0.1 or 1 μM, data on file
# T1 sequence (P05177 1-516): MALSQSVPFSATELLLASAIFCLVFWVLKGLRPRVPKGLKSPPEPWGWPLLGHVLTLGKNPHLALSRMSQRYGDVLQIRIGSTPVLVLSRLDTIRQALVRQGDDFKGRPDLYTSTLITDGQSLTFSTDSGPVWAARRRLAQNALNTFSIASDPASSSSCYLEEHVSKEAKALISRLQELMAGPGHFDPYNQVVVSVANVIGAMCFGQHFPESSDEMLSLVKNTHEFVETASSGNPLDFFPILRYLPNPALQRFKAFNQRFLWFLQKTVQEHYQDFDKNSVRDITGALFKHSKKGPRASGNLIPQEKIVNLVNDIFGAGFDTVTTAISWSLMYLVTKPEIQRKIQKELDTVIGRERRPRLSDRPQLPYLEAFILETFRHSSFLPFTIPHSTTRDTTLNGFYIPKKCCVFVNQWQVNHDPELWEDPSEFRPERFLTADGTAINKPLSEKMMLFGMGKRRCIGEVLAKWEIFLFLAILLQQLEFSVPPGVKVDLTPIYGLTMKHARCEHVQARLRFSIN
# Method: as §1
# CYP2C19 = CYP2C19 (Homo sapiens, UniProt P33261); assay: as above; type: in vitro ADME; details: data on file
# Sequence of CYP2C19 (P33261 whole entry): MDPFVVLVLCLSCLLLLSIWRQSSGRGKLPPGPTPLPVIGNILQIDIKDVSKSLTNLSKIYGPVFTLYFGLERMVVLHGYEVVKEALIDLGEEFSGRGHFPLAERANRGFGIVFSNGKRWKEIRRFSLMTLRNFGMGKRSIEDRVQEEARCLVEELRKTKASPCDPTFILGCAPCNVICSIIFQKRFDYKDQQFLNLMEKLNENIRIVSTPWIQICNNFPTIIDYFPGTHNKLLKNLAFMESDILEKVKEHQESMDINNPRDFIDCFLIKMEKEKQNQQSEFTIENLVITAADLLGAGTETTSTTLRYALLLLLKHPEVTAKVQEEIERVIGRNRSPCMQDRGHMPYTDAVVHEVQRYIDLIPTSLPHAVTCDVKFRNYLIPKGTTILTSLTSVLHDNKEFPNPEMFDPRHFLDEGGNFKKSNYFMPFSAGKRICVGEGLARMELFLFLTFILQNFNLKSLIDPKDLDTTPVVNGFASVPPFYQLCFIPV
# Method: as §1
# CYP3A4 = CYP3A4 (Homo sapiens, UniProt P08684); assay: as above; type: in vitro ADME; details: ripretinib 0.1 or 1 μM, data on file
# Sequence of CYP3A4 (P08684 whole entry): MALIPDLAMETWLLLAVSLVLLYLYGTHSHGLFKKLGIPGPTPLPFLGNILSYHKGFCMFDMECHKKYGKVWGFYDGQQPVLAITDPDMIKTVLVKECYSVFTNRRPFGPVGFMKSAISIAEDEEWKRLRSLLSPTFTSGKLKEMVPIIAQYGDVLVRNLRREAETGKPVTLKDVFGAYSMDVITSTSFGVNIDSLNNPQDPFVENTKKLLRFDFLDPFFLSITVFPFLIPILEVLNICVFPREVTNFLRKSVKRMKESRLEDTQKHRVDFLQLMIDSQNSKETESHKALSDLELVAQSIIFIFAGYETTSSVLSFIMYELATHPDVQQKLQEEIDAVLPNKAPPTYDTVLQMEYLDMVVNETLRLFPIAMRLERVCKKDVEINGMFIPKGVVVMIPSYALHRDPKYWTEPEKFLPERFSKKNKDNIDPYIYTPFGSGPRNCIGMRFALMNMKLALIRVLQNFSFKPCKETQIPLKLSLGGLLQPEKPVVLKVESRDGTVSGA
# Method: as §1
# CYP2C8 [1] = target: T2, CYP2C8 (Homo sapiens, UniProt P10632); assay: as above; type: in vitro ADME; details: data on file
# T2 sequence (P10632 1-490): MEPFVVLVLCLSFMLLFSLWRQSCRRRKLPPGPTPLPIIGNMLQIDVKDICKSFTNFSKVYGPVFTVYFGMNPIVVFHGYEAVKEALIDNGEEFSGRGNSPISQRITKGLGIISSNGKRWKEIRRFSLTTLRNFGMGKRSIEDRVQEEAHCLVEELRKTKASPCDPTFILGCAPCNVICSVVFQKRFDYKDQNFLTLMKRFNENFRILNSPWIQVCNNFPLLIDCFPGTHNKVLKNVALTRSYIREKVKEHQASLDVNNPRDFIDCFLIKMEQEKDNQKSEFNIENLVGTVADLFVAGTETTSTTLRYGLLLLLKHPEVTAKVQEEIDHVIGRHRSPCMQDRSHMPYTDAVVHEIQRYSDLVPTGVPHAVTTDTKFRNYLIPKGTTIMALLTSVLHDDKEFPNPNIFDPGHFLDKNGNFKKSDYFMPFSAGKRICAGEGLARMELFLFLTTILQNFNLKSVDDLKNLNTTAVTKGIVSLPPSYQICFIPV
# Method: as §1
# CYP2D6 [2] = target: T3, CYP2D6 (Homo sapiens, UniProt P10635); assay: as above; type: in vitro ADME; details: ripretinib 0.1 or 1 μM, data on file
# T3 construct: with human liver microsomes (0.5 mg protein/mL) for 30 minutes; from tissue; host or cells: human liver microsomes
# T3 sequence (P10635 whole entry): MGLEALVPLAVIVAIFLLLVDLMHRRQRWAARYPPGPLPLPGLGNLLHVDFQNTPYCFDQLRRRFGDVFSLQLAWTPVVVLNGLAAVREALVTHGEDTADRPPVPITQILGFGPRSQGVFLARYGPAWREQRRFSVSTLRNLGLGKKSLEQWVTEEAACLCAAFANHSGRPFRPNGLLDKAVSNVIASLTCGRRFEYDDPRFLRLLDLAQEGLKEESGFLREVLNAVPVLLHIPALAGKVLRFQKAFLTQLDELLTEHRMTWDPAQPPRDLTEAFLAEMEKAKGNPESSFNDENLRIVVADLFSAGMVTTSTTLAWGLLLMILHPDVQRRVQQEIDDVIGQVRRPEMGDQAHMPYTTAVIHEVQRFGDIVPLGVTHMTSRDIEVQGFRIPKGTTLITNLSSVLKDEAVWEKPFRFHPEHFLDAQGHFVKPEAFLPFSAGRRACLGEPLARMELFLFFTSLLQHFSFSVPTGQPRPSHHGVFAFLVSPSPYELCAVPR
# Method: as §1
# CYP2B6 = target: T4, CYP2B6 (Homo sapiens, UniProt P20813); assay: as above; type: in vitro ADME; details: ripretinib 0.1 or 1 μM, data on file
# T4 sequence (P20813 1-491): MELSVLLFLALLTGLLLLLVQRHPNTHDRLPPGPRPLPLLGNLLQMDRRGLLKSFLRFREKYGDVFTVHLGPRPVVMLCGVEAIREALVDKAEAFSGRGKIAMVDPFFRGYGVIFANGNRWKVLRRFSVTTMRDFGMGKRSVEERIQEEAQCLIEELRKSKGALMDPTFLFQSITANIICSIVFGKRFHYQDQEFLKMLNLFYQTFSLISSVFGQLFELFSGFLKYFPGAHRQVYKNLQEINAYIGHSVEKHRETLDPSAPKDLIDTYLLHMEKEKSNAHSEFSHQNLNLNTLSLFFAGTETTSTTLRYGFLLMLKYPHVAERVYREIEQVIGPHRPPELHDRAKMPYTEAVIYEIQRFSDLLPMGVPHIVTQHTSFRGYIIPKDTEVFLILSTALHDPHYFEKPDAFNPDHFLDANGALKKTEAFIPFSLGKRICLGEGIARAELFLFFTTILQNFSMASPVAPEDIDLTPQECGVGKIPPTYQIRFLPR
# Method: as §1
# CYP3A4/5 = assay: Human liver microsomes with chemical inhibitors; type: in vitro ADME
# Method: as §1
# CYP2C8 [3] = target: T2, CYP2C8; assay: Human liver microsomes with chemical inhibitors; type: in vitro ADME; details: metabolism-dependent inhibitor gemfibrozil glucuronide
# Method: as §1
# CYP2D6 [4] = target: T3, CYP2D6; assay: Human liver microsomes with chemical inhibitors; type: in vitro ADME
# Method: as §1
# [5] = Safety assessment (TEAEs), rifampin study; type: in vivo, human
# Method: Participants were confined to the study center from days −1 through 22 for the collection of plasma PK samples and all study procedures. Participants received an oral dose of ripretinib 100 mg on day 1 under fasting conditions; a higher dose of ripretinib was used than in the itraconazole or pantoprazole study due to the potential for decreased ripretinib exposure when coadministered with a strong CYP3A inducer (Figure 1B). On day 8, participants received oral doses of rifampin 600 mg once daily 1 hour before a meal with a full glass of water for 14 consecutive days through day 21. On day 18, participants received a second dose of ripretinib 100 mg administered simultaneously with rifampin 600 mg under fasting conditions. Blood samples for PK analysis were collected at predose and 1, 2, 3, 4, 5, 8, 10, 12, 24, 36, 48, 72, and 96 hours after administration of ripretinib on days 1 and 18. Safety was assessed throughout the study period and with a follow‐up phone call on day 29 or 7 days after discontinuation in the case of early withdrawal.
# Relationship to study drug was assessed by the investigator.
# Safety data were summarized as n (%).
# Sequence of CYP2C9 (P11712 whole entry, canonical isoform): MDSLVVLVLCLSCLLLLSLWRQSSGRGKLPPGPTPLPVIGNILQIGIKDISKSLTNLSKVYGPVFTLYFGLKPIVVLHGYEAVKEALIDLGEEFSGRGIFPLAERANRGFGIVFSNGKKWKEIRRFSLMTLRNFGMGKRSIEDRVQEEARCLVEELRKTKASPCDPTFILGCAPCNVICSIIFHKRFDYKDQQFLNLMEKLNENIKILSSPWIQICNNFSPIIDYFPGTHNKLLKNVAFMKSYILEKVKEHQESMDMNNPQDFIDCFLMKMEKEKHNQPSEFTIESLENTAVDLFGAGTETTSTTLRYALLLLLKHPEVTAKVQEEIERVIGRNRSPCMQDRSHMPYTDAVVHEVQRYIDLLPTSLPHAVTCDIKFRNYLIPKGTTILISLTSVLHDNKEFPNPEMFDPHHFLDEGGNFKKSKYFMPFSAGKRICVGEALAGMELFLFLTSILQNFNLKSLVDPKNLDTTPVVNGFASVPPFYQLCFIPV
smiles,measurement,setting,value
CCn1c(=O)c(-c2cc(NC(=O)Nc3ccccc3)c(F)cc2Br)cc2cnc(NC)cc21 [Ripretinib],Substrate disappearance,CYP2C9,less than 7%
same,Substrate disappearance,CYP1A2,less than 7%
same,Substrate disappearance,CYP2C19; ripretinib 0.1 μM,15.7%
same,Substrate disappearance,CYP2C19; ripretinib 1 μM,6.7%
same,Substrate disappearance,CYP3A4,87.8%–100%
same,Substrate disappearance,CYP2C8 [1]; ripretinib 0.1 μM,71.2%
same,Substrate disappearance,CYP2C8 [1]; ripretinib 1 μM,18.9%
same,Substrate disappearance,CYP2D6 [2],97.7%–100%
same,Substrate disappearance,CYP2B6,less than 7%
same,Inhibition of metabolism of ripretinib on inhibition of CYP3A4/5,"CYP3A4/5; human liver microsomes, metabolism-dependent inhibitor troleandomycin",79%
same,Role of CYP3A4/5 in metabolism,"CYP3A4/5; recombinant human CYPs and human liver microsomes with chemical inhibitors, data on file",major role
same,Decrease in metabolism of ripretinib on inhibition of CYP3A4/5,"CYP3A4/5; ripretinib 0.1 μM, human liver microsomes 0.5 mg protein/mL, 30 minutes, with ketoconazole",up to 63%
same,Inhibition of metabolism of ripretinib on inhibition of CYP2C8,CYP2C8 [3],24%
same,Inhibition of metabolism of ripretinib on inhibition of CYP2D6,"CYP2D6 [4]; human liver microsomes, metabolism-dependent inhibitor paroxetine",16%
same,Decrease in metabolism of ripretinib on inhibition of CYP2D6,"CYP2D6 [4]; ripretinib 0.1 μM, human liver microsomes 0.5 mg protein/mL, 30 minutes, with quinidine",≤ 26%
same,Number of TEAEs assessed as related to study drug,"[5]; human, in vivo, 21 days",78
same,Participants with TEAEs assessed as related to study drug per the investigator,"[5]; human, in vivo, 21 days",23 (95.8%) n (%)
same,Total number of TEAEs,"[5]; human, in vivo, 21 days",94
same,Deaths and serious AEs,"[5]; rifampin study, N = 24",No deaths or SAEs occurred
